Data on 1 molecule can be found in patent US20140073694A1, “CYSTAMINE ANALOGUES FOR THE TREATMENT OF PARKINSON'S DISEASE” (UNIVERSITE LAVAL, priority 2011, published 2014).

For this experiment, the system named is MPTP-treated mice. The experiment in a line: Subacute MPTP mouse model of Parkinson's disease: nigral DAergic markers (TH, Nurr1, DAT). In kind it is in vivo, C57BL/6 mice. The procedure:
Young adult (9-week old, 25 grams) male C57BL/6 mice were purchased from Charles River Laboratories (Montréal, QC, Canada). Animals were housed 4 per cage under standard conditions with free access to food and water, randomized and handled under the same conditions by one investigator. All experiments were performed in accordance with the Canadian Council on Animal Care and were approved by the Institutional Committee of the Centre Hospitalier de l'Université Laval (CHUL, Québec, Canada). Throughout the experiment, the health status of all mice included in the study was closely monitored for weight loss or other signs of health-related issues. All efforts were made to minimize animal pain and discomfort.
Mice received 7 i.p. injections, twice on the first 2 days of the experimental protocol at an interval of 12 hrs and once a day on 3 subsequent days, of either saline 0.9% or MPTP-HCl (20 mg/kg free base; Sigma, St. Louis, Mo.) dissolved in saline 0.9% prepared fresh (Tremblay et al., 2006; Gibrat et al., 2007; Gibrat et al., 2010).
Beneficial effects of cystamine in parkinsonian mice (cystamine dihydrochloride, Sigma, St. Louis, Mo.) were evaluated with a dose of 10 mg/kg dissolved in sterile saline 0.9% and prepared fresh for daily i.p. injection 1 hr before MPTP administration. The choice of dose and regime of administration was based on our previous findings (Tremblay et al., 2006; Gibrat et al., 2010). The first injection of cystamine was administered either 1) 2 days before the start of MPTP injections (pre-treatment) or 2) 24 hours after the last MPTP dose (post-treatment), and the treatment continued daily for 14 days post injury.
The effects of cystamine on the MPTP toxicity were studied in the following experimental groups: Group I, Saline+Saline; Group II, Saline+Cystamine post-treatment; Group III; Saline+Cystamine pre-treatment; Group IV, MPTP+Saline; Group V, MPTP+Cystamine post-treatment, Group VI, MPTP+Cystamine pre-treatment. In total, 96 mice (n=16 per group) were utilized, monitored daily for weight variation, and ultimately sacrificed by perfusion 24 hrs after the last cystamine (or vehicle) injection.
Experiment 1. All mice were subjected to intracardiac perfusion with RNAse free 0.1 M phosphate-buffered saline (PBS). After intracardiac perfusion, brains were collected and the two hemispheres were separated. The left hemisphere was post-fixed in 4% paraformaldehyde (PFA) for 48 hrs and transferred to 20% sucrose in 0.1 M PBS for cryoprotection. Coronal brain sections of 25 μm thickness were cut onto a freezing microtome (Leica Microsystems, Montreal, QC) and serially collected in anti-freeze solution (monophosphate sodium monobasic 0.2 M, monophosphate sodium dibasic 0.2 M, ethylene glycol 30%, glycerol 20%) and kept at −20° C. until use. Sections from the left hemisphere were utilized for additional immunohistochemistry and in situ hybridization protocols. The right hemispheres were snap-frozen in 2-methyl-butane and then stored at −80° C. until cryostat dissection for HPLC and western-blot (WB) analyses.
For assessment of DAergic neuronal-loss, immunohistochemistry against the enzyme TH was performed as previously described (Tremblay et al., 2006; Gibrat et al., 2009). Briefly, free-floating sections, after several washes and blocking preincubation, were incubated overnight at 4° C. with a rabbit anti-TH (Pel-Freez, Rogers, Ark.; 1:5000). Sections were then incubated for 1 hr at room temperature (RT) in a solution containing biotinylated goat anti-rabbit IgG (Vector Laboratories, Burlington, ON; 1:1500) and subsequently placed in a solution containing avidin-biotin peroxidase complex (ABC Elite kit; Vector Laboratories, Burlington, ON) for 1 hr at RT. Finally, the reaction was developed in 3,3′ diaminobenzidine tetrahydrochloride (DAB) solution (Sigma, St. Louis, Mo.) and 0.1% of 30% hydrogen peroxide (Sigma, St. Louis, Mo.) at RT. […]

[1] abbreviates: post-treatment: 10 mg/kg i.p. daily started 24 h after last MPTP dose, 14 days.
Where [2] appears, read: pre-treatment: 10 mg/kg i.p. daily started 2 days before MPTP.

Entries after “also recorded” stand apart in the source; their conditions may differ.

`NCCSSCCN` [cystamine, Cystamine]: under setting [1], the “DAT mRNA / DAT mRNA expressing cells in the SNpc” value is “significant recovery; also recorded: higher level; also recorded: comparable number of DAT-positive cells as saline treated animals”; the “Nurr1 mRNA levels in the SNpc” value is on record as “significant recovery; also recorded: normal levels of Nurr1 mRNA; also recorded: higher level of Nurr1”; the “TH-positive and Nissl-positive neurons in the SNpc, stereological count” value is “significant recovery of the number of nigral DAergic neurons; also recorded: significantly greater number of TH-positive and Nissl-positive neurons”. Also, under setting [2], the “Nurr1 mRNA levels in the SNpc” value was “normalization of Nurr1 mRNA levels” and the “SNpc neurons expressing DAT” value is given as “normalization; also recorded: comparable number of DAT-positive cells as saline treated animals”. Moreover, the “TH-immunoreactive (TH-positive) neurons in the SNpc, stereological count” value (pre-treatment: 10 mg/kg i.p. daily started 2 days before MPTP, continued 14 days post injury) was “increase density of TH-immunoreactive cells in the SNpc”.
